Legend:
CDK4 = CDK4 (Homo sapiens, UniProt P11802); assay: CDK4 (activity range), Table 2; no method described; type: biochemical
CDK5/p35 = molecular target: T1, CDK5/p35 (Homo sapiens, UniProt Q00535); assay: Kinase assay determining CDK5/p35 activity (selectivity panel); type: biochemical; details: 10 μM of compound, in comparison to DMSO (0% inhibition)
T1 construct: purchased Upsate (Upstate)
Description: Kinase Assays Determining CDK2/CyclinA and CDK5/p35 Activity:
Kinase assays were performed as described by the manufacturers recommendations (Proqinase for CDK2/CyclinA and Upsate for CDK5/p35).
(§1) The activity of these protein kinases is depicted as % inhibition in the presence of 10 μM of compound in comparison to DMSO (0% inhibition).

EGFR = EGFR (Homo sapiens, UniProt P00533); assay: General kinase assay, selectivity panel: EGFR; type: biochemical; details: 10 μM of compound, in comparison to DMSO (0% inhibition)
Description: (§2) The inhibitory effect of compounds according to the present invention on the activity of protein kinases, depicted in Table 1, can be measured according to the following protocol:
(§3) Pipettinq Sequence: • 1) Add 10 μl 4 fold concentrated Substrate+4 fold concentrated ATP in 3 fold concentrated Reaction Buffer to each well of Assay Plate • 2) Add 10 μl 4 fold concentrated inhibitor in 4% DMSO in H2O to each well except to C− and C+ wells • 3) Add 10 μl 4% DMSO in H2O to C− and C+ wells • 4) Add 10 μl 500 mM EDTA in H2O to − wells • 5) Add 10 μl 50 μCi/ml Adenosine 5′-[γ-^33P]triphosphate in H2O to each well • 6) Add 10 μl 4 fold concentrated kinase in Reaction Buffer to each well • 7) Incubate 1 hr at room temperature • 8) Add 10 μl 50 mM EDTA in H2O to each well except to C− wells • 9) Prepare MAPH plates by adding 200 μl 0.75% H3PO4 to each well • 10) Exhaust 0.75% H3PO4 using Millipore vacuum station • 11) Add 60 μl 0.75% H3PO4 to each well of MAPH Filter Plate • 12) Transfer 30 μl sample per well from Assay Plate to corresponding well of MAPH Filter Plate • 13) Incubate 30 min at room temperature • 14) Wash each well of MAPH Filter Plates 3× with 200 μl 0.75% H3PO4 using Millipore vacuum station. • 15) Add 20 μl Scintillation Liquid to each well of MAPH Filter Plate • 16) Seal MAPH Filter Plate • 17) Store MAPH Filter Plate 30 min in darkness • 18) Quantify radioactivity
as §1

Abl = Abl (Homo sapiens, UniProt P00519); assay: General kinase assay, selectivity panel: Abl; type: biochemical; details: 10 μM of compound, in comparison to DMSO (0% inhibition)
Description: as §2, §3, §1

PDGFR = assay: General kinase assay, selectivity panel: PDGFR; type: biochemical; details: 10 μM of compound, in comparison to DMSO (0% inhibition)
Description: as §2, §3, §1

GSK-3β = GSK-3β (Homo sapiens, UniProt P49841); assay: General kinase assay, selectivity panel: GSK-3β; type: biochemical; details: 10 μM of compound, in comparison to DMSO (0% inhibition)
Description: as §2, §3, §1

CDK1 = CDK1 (Homo sapiens, UniProt P06493); assay: General kinase assay, selectivity panel: CDK1; type: biochemical; details: 10 μM of compound, in comparison to DMSO (0% inhibition)
Description: as §2, §3, §1

[1] = tested on: NFκB-dependent transcriptional activity; assay: NFκB-dependent transcriptional activity (NIH 3T3 75E 11/300D8 cell line); type: cell-based
From the text: NFκB-dependent Transcriptional Activity:
The used NIH 3T3 75E 11/300D8 cell line is described elsewhere (J. Eickhoff et al., Journal of Biological Chemistry, 2004, 279(10), 9642-9652).
It is known, that CDK9 regulates the NFκB-dependent transitional activity. With Compound 4, Compound 7 and Compound 30 studies were done, to evaluate their effect on NFκB-dependent transcriptional activity.

p56 Lck = p56 Lck (Homo sapiens, UniProt P06239); assay: General kinase assay, selectivity panel: p56 Lck; type: biochemical; details: 10 μM of compound, in comparison to DMSO (0% inhibition)
Description: as §2, §3, §1

HCMV strain AD169 = assay: HCMV replication assay in HFF cells (EGFP); type: cell-based; details: strain AD 169 in HFF cells
Description: Human foreskin fibroblasts (HFF) cell culture were grown in DMEM containing 10% FCS. For HCMV-replication assays, HFF cells were infected with HCMV strain AD169 producing EGFP (HCMV AD169-GFP; 27). 1 h post infection, medium was changed with medium containing the indicated compound concentration (0.3 μM, 1 μM and 3 μM, respectively) After incubation of 7 days cells were lysed (in 25 mM Tris, pH 7.5, 2 mM DTT, 1% Triton X-100 and 10% glycerol) and analysed for EGFP content in a Wallac Victor fluorescence detector.

c-Kit = c-Kit (Homo sapiens, UniProt P10721); assay: General kinase assay, selectivity panel: c-Kit; type: biochemical; details: 10 μM of compound, in comparison to DMSO (0% inhibition)
Description: as §2, §3, §1

RSK1 = RSK1 (Homo sapiens, UniProt Q15418); assay: General kinase assay, selectivity panel: RSK1; type: biochemical; details: 10 μM of compound, in comparison to DMSO (0% inhibition)
Description: as §2, §3, §1

HBV = HBV replication assay in HepG2-2.2.15 cells; type: cell-based
Description: To test anti—HBV-activity of compounds the HBV-producing cell line HepG2-2.2.15 (M. A. Sells, PNAS 1987, 84, 1005-1009) was used. 1.0×10^4 cells were seeded in 96-well microtiter plates in DMEM medium supplemented with 10% FCS. After incubation at 37° C. in 5% CO2 atmosphere for 24 hours the medium was replaced with fresh medium containing the appropriately diluted compound. 3 days later medium was replaced by freshly prepared inhibitor-containing medium and the cells were incubated for further 3 days. Subsequently 200 μl lysis buffer (50 mM Tris-Cl 7.5; 1 mM EDTA 8.0; 0.5% NP40) per well was added. To remove cell debris and […], lysate was centrifuged (15000 rpm, 10 min, 4° C.). Cellular and viral RNA was removed by addition of 2 μl of RNase. 100 μl of the samples were spotted onto an uncharged nylon membrane pre-wetted with PBS (phosphate-buffered saline) using a 96 well-blotting chamber (MINIfold Dot-Blot, Schleicher&Schüll). After further washing with 200 μl PBS per well the membrane was treated twice with 0.5 M NaOH, 1.5 M NaCl (2 min) and 4 times with 0.5 M Tris 7.5, 3 M NaCl (1 min). The nucleic acids were fixed by UV-treatment and used for hybridisabon with a radioactive HBV-fragment prepared from the overgenome-length HBV-plasmid pT-HBV1.3 (L. G. Guidotti et al., Journal of Virology 1995., 69(10), 6158-6169).
The fixed membrane was pre-hybridized in a standard hybridisation buffer (50% formamide, 5×SSPE, 10×Denhards, 1% SDS, 100 μg/ml salmon sperm DNA) for at least 3 hours at 42° C. and hybridised overnight against the labelled HBV-fragment. The preparation of the HBV-fragment with the “Random primers DNA labelling system” (Invitrogen) was done according to the manufacturer's instructions. Hybridized filter were washed at room temperature with 2×SSC, at 62° C. with 2×SSC, 0.5% SDS and at 62° C. with 0.5×SSC, 0.5% SDS. Each washing step was carried out twice. The intensity of the HBV-DNA was quantified using a phosphoimager (Fuji). […] Absorbance was monitored at 570 nm and 600 nm wavelength.

Sequence of CDK1 (P06493 whole entry, species assumed): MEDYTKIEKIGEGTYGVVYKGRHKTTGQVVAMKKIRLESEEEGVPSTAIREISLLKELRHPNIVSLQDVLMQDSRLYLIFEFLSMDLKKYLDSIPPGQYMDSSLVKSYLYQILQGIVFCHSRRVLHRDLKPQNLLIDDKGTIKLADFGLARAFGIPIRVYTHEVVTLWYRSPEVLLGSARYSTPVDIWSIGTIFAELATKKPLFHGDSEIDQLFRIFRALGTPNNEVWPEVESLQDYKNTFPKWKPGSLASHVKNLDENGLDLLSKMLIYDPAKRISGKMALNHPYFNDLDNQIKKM
Sequence of CDK1 (P14635 whole entry partner, species assumed): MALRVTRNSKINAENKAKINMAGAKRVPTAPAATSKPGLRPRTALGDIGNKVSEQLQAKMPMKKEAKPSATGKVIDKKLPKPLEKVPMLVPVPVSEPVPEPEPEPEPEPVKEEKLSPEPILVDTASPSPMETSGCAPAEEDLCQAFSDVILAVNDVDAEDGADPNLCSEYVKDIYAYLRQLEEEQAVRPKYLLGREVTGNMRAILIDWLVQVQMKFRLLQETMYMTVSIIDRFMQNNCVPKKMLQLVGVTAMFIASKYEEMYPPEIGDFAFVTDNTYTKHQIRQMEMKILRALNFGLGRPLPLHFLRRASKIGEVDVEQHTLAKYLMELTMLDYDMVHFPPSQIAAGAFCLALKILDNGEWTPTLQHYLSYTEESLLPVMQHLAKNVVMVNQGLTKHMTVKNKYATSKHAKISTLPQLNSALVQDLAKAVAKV
Sequence of c-Kit (P10721 26-976): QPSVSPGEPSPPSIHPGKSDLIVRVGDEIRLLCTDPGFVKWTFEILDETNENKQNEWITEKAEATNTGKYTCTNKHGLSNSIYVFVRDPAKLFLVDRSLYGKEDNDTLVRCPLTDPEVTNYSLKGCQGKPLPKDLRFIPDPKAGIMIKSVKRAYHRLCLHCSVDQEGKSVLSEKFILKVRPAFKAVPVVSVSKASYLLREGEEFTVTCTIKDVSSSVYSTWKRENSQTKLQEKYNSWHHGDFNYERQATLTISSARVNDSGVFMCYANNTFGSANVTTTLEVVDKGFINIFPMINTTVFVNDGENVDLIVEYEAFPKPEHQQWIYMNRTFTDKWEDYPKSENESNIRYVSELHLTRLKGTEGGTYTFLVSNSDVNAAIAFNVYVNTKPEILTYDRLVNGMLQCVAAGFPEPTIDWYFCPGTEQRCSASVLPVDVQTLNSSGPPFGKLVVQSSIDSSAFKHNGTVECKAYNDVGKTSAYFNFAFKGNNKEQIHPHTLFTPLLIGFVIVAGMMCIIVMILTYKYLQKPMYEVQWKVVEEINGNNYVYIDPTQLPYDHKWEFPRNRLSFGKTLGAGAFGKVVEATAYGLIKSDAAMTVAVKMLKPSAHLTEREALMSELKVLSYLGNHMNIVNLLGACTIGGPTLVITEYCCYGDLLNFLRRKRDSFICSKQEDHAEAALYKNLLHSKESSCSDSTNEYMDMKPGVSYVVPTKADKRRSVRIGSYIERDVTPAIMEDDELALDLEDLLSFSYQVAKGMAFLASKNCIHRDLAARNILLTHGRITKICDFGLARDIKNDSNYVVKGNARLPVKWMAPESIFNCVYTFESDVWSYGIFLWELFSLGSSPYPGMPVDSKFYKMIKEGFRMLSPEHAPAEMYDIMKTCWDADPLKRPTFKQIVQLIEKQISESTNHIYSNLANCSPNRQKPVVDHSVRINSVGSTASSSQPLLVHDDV
Sequence of CDK4 (P11802 whole entry, species assumed): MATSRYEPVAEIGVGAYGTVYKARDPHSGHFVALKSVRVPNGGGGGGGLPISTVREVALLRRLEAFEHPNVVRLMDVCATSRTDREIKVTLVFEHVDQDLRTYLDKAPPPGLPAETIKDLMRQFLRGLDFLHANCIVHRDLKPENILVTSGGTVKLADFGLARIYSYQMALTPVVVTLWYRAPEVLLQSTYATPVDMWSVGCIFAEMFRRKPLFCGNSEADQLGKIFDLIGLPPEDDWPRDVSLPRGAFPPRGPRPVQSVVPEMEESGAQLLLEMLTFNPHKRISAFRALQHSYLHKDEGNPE
Sequence of CDK4 (P24385 whole entry partner, species assumed): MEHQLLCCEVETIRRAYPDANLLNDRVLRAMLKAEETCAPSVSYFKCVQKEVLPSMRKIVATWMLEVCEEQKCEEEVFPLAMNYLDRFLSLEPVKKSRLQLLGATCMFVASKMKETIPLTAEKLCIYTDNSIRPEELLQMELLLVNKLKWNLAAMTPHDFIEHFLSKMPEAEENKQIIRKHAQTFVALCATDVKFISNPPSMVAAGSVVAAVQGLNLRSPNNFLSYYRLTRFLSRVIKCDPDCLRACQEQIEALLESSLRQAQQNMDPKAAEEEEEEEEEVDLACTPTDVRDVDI
Sequence of GSK-3β (P49841 whole entry, species assumed): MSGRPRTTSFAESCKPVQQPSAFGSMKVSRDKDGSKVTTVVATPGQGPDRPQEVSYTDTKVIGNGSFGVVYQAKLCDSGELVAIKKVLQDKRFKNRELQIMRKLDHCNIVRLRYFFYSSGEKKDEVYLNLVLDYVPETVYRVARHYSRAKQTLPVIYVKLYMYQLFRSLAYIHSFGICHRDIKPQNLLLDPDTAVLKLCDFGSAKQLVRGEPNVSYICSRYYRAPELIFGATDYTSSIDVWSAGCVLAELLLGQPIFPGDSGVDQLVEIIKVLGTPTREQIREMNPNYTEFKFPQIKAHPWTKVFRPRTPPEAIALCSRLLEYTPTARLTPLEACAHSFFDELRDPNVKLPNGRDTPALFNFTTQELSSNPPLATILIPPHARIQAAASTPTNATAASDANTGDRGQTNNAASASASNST
T1 sequence (Q00535 whole entry): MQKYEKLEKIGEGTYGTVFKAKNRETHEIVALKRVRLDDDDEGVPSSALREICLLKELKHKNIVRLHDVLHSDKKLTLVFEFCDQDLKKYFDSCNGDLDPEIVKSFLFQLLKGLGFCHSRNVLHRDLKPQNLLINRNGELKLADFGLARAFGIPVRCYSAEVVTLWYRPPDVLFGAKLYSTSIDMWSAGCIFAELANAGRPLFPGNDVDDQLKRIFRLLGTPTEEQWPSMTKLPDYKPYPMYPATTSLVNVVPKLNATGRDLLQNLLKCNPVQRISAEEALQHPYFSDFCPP
T1 sequence (Q15078 whole entry partner): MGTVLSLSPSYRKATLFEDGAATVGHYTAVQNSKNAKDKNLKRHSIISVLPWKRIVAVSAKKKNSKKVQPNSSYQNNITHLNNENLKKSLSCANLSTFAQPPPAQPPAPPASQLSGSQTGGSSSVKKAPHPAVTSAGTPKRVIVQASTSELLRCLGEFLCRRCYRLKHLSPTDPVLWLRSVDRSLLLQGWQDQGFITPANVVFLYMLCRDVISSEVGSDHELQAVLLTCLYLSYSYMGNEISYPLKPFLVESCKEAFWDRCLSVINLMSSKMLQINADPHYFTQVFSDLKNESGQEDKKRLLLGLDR
Sequence of Abl (P00519 whole entry, species assumed): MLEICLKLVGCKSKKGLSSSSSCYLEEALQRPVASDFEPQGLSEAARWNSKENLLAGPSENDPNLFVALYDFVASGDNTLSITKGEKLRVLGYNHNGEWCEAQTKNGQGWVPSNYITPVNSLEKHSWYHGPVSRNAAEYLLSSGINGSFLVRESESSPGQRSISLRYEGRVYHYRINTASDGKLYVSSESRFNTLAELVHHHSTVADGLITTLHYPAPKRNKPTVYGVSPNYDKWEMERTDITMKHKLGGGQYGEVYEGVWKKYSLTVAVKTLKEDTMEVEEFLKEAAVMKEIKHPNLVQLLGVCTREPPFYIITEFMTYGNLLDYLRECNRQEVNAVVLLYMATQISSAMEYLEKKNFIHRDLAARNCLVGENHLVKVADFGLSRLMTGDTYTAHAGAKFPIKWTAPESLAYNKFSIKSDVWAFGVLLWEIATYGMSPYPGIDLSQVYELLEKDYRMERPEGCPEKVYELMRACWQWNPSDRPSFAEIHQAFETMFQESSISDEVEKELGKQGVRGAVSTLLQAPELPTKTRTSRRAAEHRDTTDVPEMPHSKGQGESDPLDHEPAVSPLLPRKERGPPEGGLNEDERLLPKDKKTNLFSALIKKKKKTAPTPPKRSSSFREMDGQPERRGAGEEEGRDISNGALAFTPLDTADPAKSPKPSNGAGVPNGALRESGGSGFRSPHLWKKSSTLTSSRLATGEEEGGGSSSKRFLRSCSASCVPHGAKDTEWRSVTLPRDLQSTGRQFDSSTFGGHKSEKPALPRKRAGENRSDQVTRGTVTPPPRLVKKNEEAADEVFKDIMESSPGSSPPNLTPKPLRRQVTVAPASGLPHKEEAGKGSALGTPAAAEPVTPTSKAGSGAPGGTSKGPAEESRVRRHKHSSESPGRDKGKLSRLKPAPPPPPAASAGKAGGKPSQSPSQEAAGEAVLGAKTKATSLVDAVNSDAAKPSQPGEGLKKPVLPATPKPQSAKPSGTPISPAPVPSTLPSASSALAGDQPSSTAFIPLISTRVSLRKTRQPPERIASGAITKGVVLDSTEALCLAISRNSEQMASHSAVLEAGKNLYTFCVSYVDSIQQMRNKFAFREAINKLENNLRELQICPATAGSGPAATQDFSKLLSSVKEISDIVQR
Sequence of p56 Lck (P06239 whole entry): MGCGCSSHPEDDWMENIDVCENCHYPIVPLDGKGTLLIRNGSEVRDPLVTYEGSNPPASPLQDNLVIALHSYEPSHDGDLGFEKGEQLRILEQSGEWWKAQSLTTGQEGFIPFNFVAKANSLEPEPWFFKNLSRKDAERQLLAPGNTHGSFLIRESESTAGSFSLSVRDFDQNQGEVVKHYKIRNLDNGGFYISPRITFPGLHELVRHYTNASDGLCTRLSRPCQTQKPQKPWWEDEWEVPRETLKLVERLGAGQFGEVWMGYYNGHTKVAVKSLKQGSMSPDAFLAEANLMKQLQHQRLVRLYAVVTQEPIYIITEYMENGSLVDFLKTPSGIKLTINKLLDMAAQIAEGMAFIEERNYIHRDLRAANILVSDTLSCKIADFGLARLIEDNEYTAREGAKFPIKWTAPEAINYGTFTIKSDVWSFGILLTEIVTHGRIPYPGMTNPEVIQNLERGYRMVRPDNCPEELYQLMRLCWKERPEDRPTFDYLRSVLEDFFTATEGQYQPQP

Row | SMILES | IC50 (CDK4) [µM] | EGFR (% inhibition) (EGFR) | PDGFR (% inhibition) (PDGFR) | GSK-3β (% inhibition) (GSK-3β) | CDK1 (% inhibition) (CDK1) | further results
1 | COc1ccccc1-c1cc(Nc2cccc(S(N)(=O)=O)c2)ncn1 [Compound 331] | 10 to 250 |  |  |  |  | 
2 | CCN(CC)CCNC(=O)c1ccc(Nc2cc(-c3ccccc3OC)ncn2)cc1 [Compound 217] | 1 to 10 |  |  |  |  | 
3 | COc1cccc(F)c1-c1cc(Nc2cccc(S(C)(=O)=O)c2)ncn1 [Compound 346] | 1 to 10 |  |  |  |  | 
4 | COc1ncccc1-c1cc(Nc2ccc(C(=O)N[C@@H]3CCCC[C@H]3N)cc2)ncn1 [Compound 219] | 10 to 250 |  |  |  |  | 
5 | Nc1ccc(C(=O)Nc2ccc(Nc3cc(-c4ccccc4OCc4ccccc4)ncn3)cc2)cc1 [Compound 4] |  | c (inhibition between 50 and 30%: c) |  | a (inhibition greater than 80%: a) | a (inhibition greater than 80%: a) | inhibition of NFκB (in words, compared with Compound 30) [1]: less effectively; EC50 ([1]; titration): ~2 µM; p56 Lck (% inhibition) (p56 Lck): a (inhibition greater than 80%: a); HCMV replication (in words) (HCMV strain AD169): showed inhibition
6 | COc1ccc(-c2cc(Nc3ccc(NC(=O)c4ccc(N)cc4)cc3)ncn2)cc1 [Compound 6] |  |  | c (inhibition between 50 and 30%: c) | b (inhibition between 80 and 50%: b) | a (inhibition greater than 80%: a) | p56 Lck (% inhibition) (p56 Lck): c (inhibition between 50 and 30%: c); c-Kit (% inhibition) (c-Kit): b (inhibition between 80 and 50%: b); HCMV replication (in words) (HCMV strain AD169): showed inhibition
7 | CN(C)c1ccccc1-c1cc(Nc2ccc(C(=O)N[C@@H]3CCCC[C@H]3N)cc2)ncn1 [Compound 233] | 1 to 10 |  |  |  |  | 
8 | CN1CC[C@H](c2c(O)cc(O)c3c(=O)cc(-c4ccccc4Cl)oc23)[C@H](O)C1 [flavopiridol, reference compound] |  |  |  |  |  | HBV replication (in words) (HBV): inhibits replication
9 | COc1ccccc1-c1cc(Nc2ccc3c(c2)S(=O)(=O)C=C3)ncn1 [Compound 342] | 10 to 250 |  |  |  |  | 
10 | Cc1ccc(Nc2cc(-c3cccc(N)c3)ncn2)cc1NS(=O)(=O)c1ccccc1 [Compound 109] |  | b (inhibition between 80 and 50%: b) | c (inhibition between 50 and 30%: c) | a (inhibition greater than 80%: a) | a (inhibition greater than 80%: a) | CDK5 (% inhibition) (CDK5/p35): a (inhibition greater than 80%: a)
11 | COc1ccccc1-c1cc(Nc2ccc(N3CCOCC3)cc2)ncn1 [Compound 280] | 1 to 10 |  |  |  |  | 
12 | CSc1ccncc1-c1cc(Nc2ccc(C(=O)N[C@@H]3CCCC[C@H]3N)cc2)ncn1 [Compound 224] | 1 to 10 |  |  |  |  | 

Now from value to compound, other results behind:

Row | IC50 (CDK4) [µM] | EGFR (% inhibition) (EGFR) | PDGFR (% inhibition) (PDGFR) | GSK-3β (% inhibition) (GSK-3β) | CDK1 (% inhibition) (CDK1) | SMILES | further results
13 |  | a (inhibition greater than 80%: a) | c (inhibition between 50 and 30%: c) | c (inhibition between 50 and 30%: c) | b (inhibition between 80 and 50%: b) | CN[C@H](C(=O)Nc1ccc(Nc2cc(-c3ccccc3OC)ncn2)cc1)c1ccccc1 [Compound 82] | CDK5 (% inhibition) (CDK5/p35): b (inhibition between 80 and 50%: b); Abl (% inhibition) (Abl): c (inhibition between 50 and 30%: c)
14 |  | b (inhibition between 80 and 50%: b) | b (inhibition between 80 and 50%: b) | b (inhibition between 80 and 50%: b) | a (inhibition greater than 80%: a) | COc1ccccc1-c1cc(Nc2ccc(NC(=O)[C@@H](N)c3ccccc3)cc2)ncn1 [Compound 81] | CDK5 (% inhibition) (CDK5/p35): a (inhibition greater than 80%: a); Abl (% inhibition) (Abl): b (inhibition between 80 and 50%: b)
15 | 1 to 10 |  |  |  |  | COc1ccccc1-c1cc(Nc2ccc(CCO)cc2)ncn1 [Compound 351] | 
16 | 1 to 10 |  |  |  |  | O=C(O)Cc1ccc(Nc2cc(-c3ccccc3OCc3ccccc3)ncn2)cc1 [Compound 294] | 
17 | 1 to 10 |  |  |  |  | CNS(=O)(=O)c1ccc(Nc2cc(-c3ccccc3OC)ncn2)cc1 [Compound 341] | 
18 |  | b (inhibition between 80 and 50%: b) | b (inhibition between 80 and 50%: b) | b (inhibition between 80 and 50%: b) | a (inhibition greater than 80%: a) | COc1ccccc1-c1cc(Nc2ccc(NC(=O)c3cn(C)cn3)cc2)ncn1 [Compound 70] | Abl (% inhibition) (Abl): c (inhibition between 50 and 30%: c); p56 Lck (% inhibition) (p56 Lck): b (inhibition between 80 and 50%: b); c-Kit (% inhibition) (c-Kit): b (inhibition between 80 and 50%: b); RSK1 (% inhibition) (RSK1): b (inhibition between 80 and 50%: b)
19 |  | b (inhibition between 80 and 50%: b) | b (inhibition between 80 and 50%: b) | b (inhibition between 80 and 50%: b) | a (inhibition greater than 80%: a) | COc1ccccc1-c1cc(Nc2ccc(NS(C)(=O)=O)cc2)ncn1 [Compound 33] | p56 Lck (% inhibition) (p56 Lck): b (inhibition between 80 and 50%: b); c-Kit (% inhibition) (c-Kit): b (inhibition between 80 and 50%: b); RSK1 (% inhibition) (RSK1): c (inhibition between 50 and 30%: c)
20 |  | a (inhibition greater than 80%: a) | b (inhibition between 80 and 50%: b) |  | b (inhibition between 80 and 50%: b) | CNC(C)(C)C(=O)Nc1ccc(Nc2cc(-c3ccccc3OC)ncn2)cc1 [Compound 118] | CDK5 (% inhibition) (CDK5/p35): b (inhibition between 80 and 50%: b); Abl (% inhibition) (Abl): c (inhibition between 50 and 30%: c)
